Reference: ChEMBL document CHEMBL3272337, “Synthesis of a fragment of human parathyroid hormore, hPTH-(44-68)” (J Med Chem, 1977)
Calls of active or inactive are those of the source. No cut-off for these calls is given here. Peptide text beside a SMILES is read from it.

Key:
[1] = target: T1, Adenylate cyclase (Homo sapiens) (UniProt Q8NFM4+O60503+Q08828+P40145+O60266+O95622+O43306+Q08462+P51828); assay: Inhibition of bPTH-stimulated adenylyl cyclase (unknown origin) activity at 500:1 compound to native hormone molar ratio; type: protein assay
Gallus gallus = assay: Induction of PTH-like activity in iv dosed chick by hypercalcemic assay; type: functional, organism-based
[2] = target: T1, Adenylate cyclase (Homo sapiens); assay: Agonist activity at adenylyl cyclase (unknown origin) at 1.35 x 10^-4 M; type: protein assay

inhibition [1]: inactive
Activity [2]: inactive
SMILES: CC(C)C[C@H](NC(=O)[C@H](CO)NC(=O)[C@H](CCCCN)NC(=O)[C@H](CCC(=O)O)NC(=O)[C@H](Cc1cnc[nH]1)NC(=O)[C@H](CO)NC(=O)[C@H](CCC(=O)O)NC(=O)[C@@H](NC(=O)[C@H](CC(C)C)NC(=O)[C@@H](NC(=O)[C@H](CC(N)=O)NC(=O)[C@H](CC(=O)O)NC(=O)[C@H](CCC(=O)O)NC(=O)[C@H](CCCCN)NC(=O)[C@H](CCCCN)NC(=O)[C@H](CCCNC(=N)N)NC(=O)[C@@H]1CCCN1C(=O)[C@H](CCCNC(=N)N)NC(=O)[C@H](CCC(N)=O)NC(=O)[C@H](CO)NC(=O)CNC(=O)[C@H](C)NC(=O)[C@H](CC(=O)O)NC(=O)[C@@H](N)CCCNC(=N)N)C(C)C)C(C)C)C(=O)NCC(=O)O (H-RDAGSQRPRKKEDNVLVESHEKSLG-OH)
Activity (Gallus gallus): inactive
